Converted amounts (≈) assume the structure as drawn. Read-outs that look alike come from different tables or passages of the source. Marks after values point to notes of the source that are not given here.
Experiments:
[1] = system: A3; conditions: printed in Figure 2; cited from earlier work
[2] = system: A2A; conditions: cited from earlier work
[3] = target: A1; conditions: cited from earlier work
[4] = target: T1, human A1AR (Homo sapiens, UniProt P30542); assay: biochemical
T1 sequence (P30542 1-326): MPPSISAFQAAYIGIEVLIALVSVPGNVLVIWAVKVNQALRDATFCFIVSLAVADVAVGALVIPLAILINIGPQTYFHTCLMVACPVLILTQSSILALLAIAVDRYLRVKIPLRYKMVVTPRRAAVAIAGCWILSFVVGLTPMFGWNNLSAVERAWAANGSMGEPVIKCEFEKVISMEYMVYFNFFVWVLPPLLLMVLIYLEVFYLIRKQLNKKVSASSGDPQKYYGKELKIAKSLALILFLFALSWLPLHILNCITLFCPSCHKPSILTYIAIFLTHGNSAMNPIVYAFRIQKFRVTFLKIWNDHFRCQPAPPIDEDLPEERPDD

[5] = target: T1, human A1AR; conditions: for Exp absolute binding affinity (ΔGbind): experimental, A1AR; for Ki: read-out: hA1 Ki, displacement of specific [3H]DPCPX binding, human CHO cells, ± SEM, n = 3
[6] = target: P-glycoprotein (P-gp) (Homo sapiens, UniProt P08183); conditions: MDCK-MDR1 cells, NA = not active
[7] = target: T2, hA2B (Homo sapiens, UniProt P29275); assay: cAMP functional assay, inhibition of NECA effect; assay type: cell-based; conditions: read-out: hA2B % Inhib. NECA (1 μM)
T2 sequence (P29275 1-332): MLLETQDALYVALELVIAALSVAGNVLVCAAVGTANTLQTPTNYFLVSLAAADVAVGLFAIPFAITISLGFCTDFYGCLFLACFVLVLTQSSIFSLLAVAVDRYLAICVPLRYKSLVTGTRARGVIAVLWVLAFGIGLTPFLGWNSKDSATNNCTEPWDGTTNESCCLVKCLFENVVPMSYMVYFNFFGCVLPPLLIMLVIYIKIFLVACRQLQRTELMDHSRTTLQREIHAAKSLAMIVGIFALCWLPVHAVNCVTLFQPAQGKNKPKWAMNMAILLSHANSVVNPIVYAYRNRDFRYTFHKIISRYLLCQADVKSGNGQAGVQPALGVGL

[8] = Aqueous solubility by nephelometry in PBS; conditions: pH 7.4
[9] = target: T3, hA3 (Homo sapiens, UniProt P0DMS8); assay: cAMP functional assay, inhibition of NECA effect; assay type: cell-based; conditions: read-out: hA3 % Inhib. NECA (1 μM)
T3 sequence (P0DMS8 1-318): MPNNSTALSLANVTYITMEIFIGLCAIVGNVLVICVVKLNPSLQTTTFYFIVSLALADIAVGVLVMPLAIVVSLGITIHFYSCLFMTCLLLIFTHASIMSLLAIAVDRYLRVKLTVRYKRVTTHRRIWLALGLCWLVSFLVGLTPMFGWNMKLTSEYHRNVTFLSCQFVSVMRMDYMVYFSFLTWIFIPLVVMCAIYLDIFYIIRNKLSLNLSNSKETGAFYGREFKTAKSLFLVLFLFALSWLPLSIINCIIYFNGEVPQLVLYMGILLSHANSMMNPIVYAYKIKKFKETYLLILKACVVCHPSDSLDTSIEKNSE

[10] = in vitro; conditions: human, microsomes, pH 7.4
[11] = target: hA2A (Homo sapiens, UniProt P29274); assay: cAMP functional assay, inhibition of NECA effect; assay type: cell-based; conditions: read-out: hA2A % Inhib. NECA (1 μM)
[12] = target: human A2AAR (Homo sapiens, UniProt P29274); conditions: read-out: hA2A Ki; displacement of specific [3H]ZM241385 binding, human HeLa cells, ± SEM, n = 3
[13] = target: T4, human A2BAR (Homo sapiens, UniProt P29275); conditions: read-out: hA2B Ki; displacement of specific [3H]DPCPX binding, human HEK-293 cells, ± SEM, n = 3
T4 sequence (P29275 1-332): T2 sequence (P29275 1-332)

[14] = target: T4, human A2BAR; assay: biochemical; conditions: read-out: hA2B percentage displacement of specific binding at 1 μM
[15] = human microsomes
[16] = target: T5, hA1ARs (Homo sapiens, UniProt P30542); conditions: NECA 100 nM, forskolin 3 μM
T5 sequence (P30542 1-326): T1 sequence (P30542 1-326)

human A2AAR, sequence (P29274 whole entry): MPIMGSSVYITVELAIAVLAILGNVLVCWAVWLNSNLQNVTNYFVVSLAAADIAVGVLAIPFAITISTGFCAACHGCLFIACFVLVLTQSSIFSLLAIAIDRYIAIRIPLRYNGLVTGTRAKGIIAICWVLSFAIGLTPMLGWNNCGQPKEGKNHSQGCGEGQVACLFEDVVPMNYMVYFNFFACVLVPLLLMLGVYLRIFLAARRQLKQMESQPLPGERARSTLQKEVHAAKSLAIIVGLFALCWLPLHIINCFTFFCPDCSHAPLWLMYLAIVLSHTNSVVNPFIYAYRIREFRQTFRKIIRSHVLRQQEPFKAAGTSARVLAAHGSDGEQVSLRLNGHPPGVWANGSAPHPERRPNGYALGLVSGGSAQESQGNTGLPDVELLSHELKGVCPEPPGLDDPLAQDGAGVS
hA2A, sequence (P29274 whole entry): as above
P-glycoprotein (P-gp), sequence (P08183 whole entry): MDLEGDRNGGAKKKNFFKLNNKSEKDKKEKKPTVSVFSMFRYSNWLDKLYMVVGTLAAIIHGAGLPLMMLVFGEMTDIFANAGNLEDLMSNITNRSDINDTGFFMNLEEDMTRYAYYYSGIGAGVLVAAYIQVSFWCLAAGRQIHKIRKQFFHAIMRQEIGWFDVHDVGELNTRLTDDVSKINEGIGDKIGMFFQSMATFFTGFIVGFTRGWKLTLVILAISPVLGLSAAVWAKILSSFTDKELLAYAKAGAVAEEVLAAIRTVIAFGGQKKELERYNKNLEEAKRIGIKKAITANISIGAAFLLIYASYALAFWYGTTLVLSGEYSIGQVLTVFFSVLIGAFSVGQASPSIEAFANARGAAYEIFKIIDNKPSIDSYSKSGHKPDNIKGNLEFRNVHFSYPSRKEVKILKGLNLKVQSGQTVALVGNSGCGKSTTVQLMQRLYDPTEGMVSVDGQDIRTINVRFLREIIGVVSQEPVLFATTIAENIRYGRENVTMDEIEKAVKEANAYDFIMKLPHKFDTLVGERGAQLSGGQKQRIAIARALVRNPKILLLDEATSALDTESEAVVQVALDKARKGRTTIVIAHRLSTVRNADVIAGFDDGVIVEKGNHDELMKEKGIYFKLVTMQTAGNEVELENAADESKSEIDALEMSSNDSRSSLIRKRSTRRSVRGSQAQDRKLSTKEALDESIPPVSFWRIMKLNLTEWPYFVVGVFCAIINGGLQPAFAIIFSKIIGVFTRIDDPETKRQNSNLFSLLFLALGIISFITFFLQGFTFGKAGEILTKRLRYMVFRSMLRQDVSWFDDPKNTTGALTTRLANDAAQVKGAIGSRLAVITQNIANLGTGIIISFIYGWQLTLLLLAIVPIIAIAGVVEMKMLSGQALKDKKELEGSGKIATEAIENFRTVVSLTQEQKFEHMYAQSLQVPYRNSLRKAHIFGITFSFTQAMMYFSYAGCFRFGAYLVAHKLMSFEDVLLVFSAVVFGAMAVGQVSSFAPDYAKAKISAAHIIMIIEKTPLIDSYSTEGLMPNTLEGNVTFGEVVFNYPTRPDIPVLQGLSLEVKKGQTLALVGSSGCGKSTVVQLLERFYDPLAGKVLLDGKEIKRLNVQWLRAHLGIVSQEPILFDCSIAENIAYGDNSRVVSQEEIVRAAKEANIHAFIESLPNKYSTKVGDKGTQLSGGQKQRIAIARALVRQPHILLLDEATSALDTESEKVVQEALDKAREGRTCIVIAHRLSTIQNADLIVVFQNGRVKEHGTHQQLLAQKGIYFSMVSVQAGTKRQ

Nc1cc(-c2ccc3c(c2)OCO3)nc(-c2ccccc2)n1 [15b]
A3 (1μM) [1]: 15%

N#Cc1c(NC(=O)C2CCCC2)nc(-c2ccccc2)nc1-c1ccc2c(c1)OCO2 [15c]
A3 (1μM) [1]: 27%
A2A (1μM) [2]: 14%

Nc1nc(-c2ccccc2)cc(-c2ccccc2)n1 [17a]
Ki [3]: 17.7 nM

CNc1nc(-c2ccccc2)c(C#N)c(-c2ccc(F)cc2F)n1 [19af]
Ki [4]: < 50 nM
Exp absolute binding affinity (ΔGbind) [5]: -10.42 kcal/mol
Ki [5]: 22.6 ± 7 nM
Calcein-AM transport inhibition at 100 μM [6]: 44% ^a

CNc1nc(-c2ccccc2)c(C#N)c(-c2cc(Cl)cc(Cl)c2)n1 [19aj]
Ki [4]: < 50 nM
Exp absolute binding affinity (ΔGbind) [5]: -10.32 kcal/mol
Ki [5]: 27 ± 3.6 nM

CNc1nc(-c2ccccc2)c(C#N)c(-c2ccc3c(c2)OCO3)n1 [19ao]
inhibition at 1 µM [7]: 1%
solubility at 2 h [8]: 5.4 µM (≈ 1.78 µg/mL)
inhibition at 1 µM [9]: 5%
half-life [10]: 15.2 min
inhibition at 1 µM [11]: 18%
Calcein-AM transport inhibition at 100 μM [6]: 59% ^a

N#Cc1c(-c2ccccc2)nc(Nc2ccccc2)nc1-c1ccc2c(c1)OCO2 [19aq]
Ki [12]: 28 ± 9.6 nM
Ki [13]: 188 ± 23 nM
Ki [5]: 11.4 ± 3.7 nM

N#Cc1c(-c2ccccc2)nc(Nc2ccccc2)nc1-c1ccco1 [19au]
Ki [12]: 2.15 ± 0.11 nM
Ki [13]: 14.7 ± 4.9 nM
Ki [5]: 33.7 ± 7.3 nM

CNc1nc(-c2ccccc2)c(C#N)c(-c2ccsc2)n1 [19az]
Ki [4]: < 50 nM
A1AR selectivity [5]: > 1000 fold
Exp relative binding affinity (ΔΔGbind) ([5]; Lig 2 relative to Lig 1 = 19a): 0.91 kcal/mol
Exp relative binding affinity (ΔΔGbind) ([5]; Lig 2 relative to Lig 1 = 19bb): -0.17 kcal/mol
Exp absolute binding affinity (ΔGbind) [5]: -10.05 kcal/mol
Ki [5]: 42.8 ± 3.7 nM

CNc1nc(-c2ccccc2)c(C#N)c(-c2cccnc2)n1 [19bd]
Ki [4]: < 50 nM
A1AR selectivity [5]: > 1000 fold
Exp relative binding affinity (ΔΔGbind) ([5]; Lig 2 relative to Lig 1 = 19a): 0.44 kcal/mol
Exp relative binding affinity (ΔΔGbind) ([5]; Lig 2 relative to Lig 1 = 19bb): -0.64 kcal/mol
Exp absolute binding affinity (ΔGbind) [5]: -10.52 kcal/mol
Ki [5]: 19.3 ± 7.1 nM

CCNc1nc(-c2ccccc2)c(C#N)c(-c2cccnc2)n1 [19be]
inhibition at 1 µM [14]: 1%
Ki [12]: 335 ± 18 nM
Ki [5]: 11.8 ± 3.5 nM

N#Cc1c(-c2ccccc2)nc(Nc2ccccc2)nc1-c1ccccc1F [19e]
Ki [12]: 52.5 ± 6.2 nM
Ki [13]: 107 ± 10 nM
Ki [5]: 6.25 ± 1.02 nM

CNc1nc(-c2ccccc2)c(C#N)c(-c2cccc(Cl)c2)n1 [19l]
inhibition at 1 µM [7]: 11%
solubility at 2 h [8]: 75.4 µM (≈ 24.2 µg/mL)
inhibition at 1 µM [9]: 9%
half-life [10]: 6.24 min
inhibition at 1 µM [11]: 16%

CNc1nc(-c2ccccc2)c(C#N)c(-c2cccc(C#N)c2)n1 [19s]
Ki [12]: 78.5 ± 6.7 nM
Ki [13]: 34.6 ± 5.7 nM
Exp relative binding affinity (ΔΔGbind) ([5]; Lig 2 relative to Lig 1 = 19a): -0.66 kcal/mol
Exp absolute binding affinity (ΔGbind) [5]: -11.62 kcal/mol
Ki [5]: 2.99 ± 0.71 nM

CCNc1nc(-c2ccccc2)c(C#N)c(-c2cccc(C#N)c2)n1 [19t]
Ki [12]: 155 ± 21 nM
Ki [13]: 14.2 ± 3.8 nM
Ki [5]: 2.46 ± 0.18 nM

CNc1nc(-c2ccccc2)c(C#N)c(-c2ccc(F)cc2)n1 [19v]
solubility at 2 h [8]: 18 µM (≈ 5.48 µg/mL)
inhibition at 1 µM [9]: 5%
half-life [10]: 18.6 min
inhibition at 1 µM [11]: 25%

CNc1nc(-c2ccccc2)c(C#N)c(-c2ccc(O)cc2)n1 [19z]
Ki [4]: < 50 nM
A1AR selectivity [5]: > 1000 fold
Exp relative binding affinity (ΔΔGbind) ([5]; Lig 2 relative to Lig 1 = 19a): 0.94 kcal/mol
Exp relative binding affinity (ΔΔGbind) ([5]; Lig 2 relative to Lig 1 = 19ad): 0.28 kcal/mol
Exp absolute binding affinity (ΔGbind) [5]: -10.02 kcal/mol
Ki [5]: 44.6 ± 3.2 nM

C[C@]12CC[C@H]3[C@@H](CCC4=CC(=O)CC[C@@]43C)[C@@H]1CC[C@@H]2O [Testosterone, reference compound]
% Remanent (sampling time 60 min) [15]: 8.77%
half-life [10]: 17.1 min
microsomal CLint [10]: 27.8 µL/min/mg

CCCn1c(=O)c2[nH]c(-c3ccc(OCC(=O)NCCN)cc3)nc2n(CCC)c1=O [XAC]
functional behaviour at hA1ARs (cAMP) [16]: reverse the inhibitory effect of NECA on FSK-induced cAMP accumulation
